Data taken from PubChem BioAssay (NCI).
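Step 1: Grow cells in 96-well plates. Step 2: Expose to compound for 48 hours at 5 concentrations. Step 3: Interpolate endpoints linearly; if unreached, use highest concentration. The concentration for full growth arrest is given as TGI.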

Experiments:
Test in all cases: NCI tumour cell line growth inhibition, 48 h
DU-145 prostate = system: DU-145 prostate
MDA-N = system: MDA-N
UO-31 renal = system: UO-31 renal
ACHN renal = system: ACHN renal
SK-MEL-28 melanoma = system: SK-MEL-28 melanoma
OVCAR-4 ovarian = system: OVCAR-4 ovarian
NCI-H23 lung = system: NCI-H23 lung
MALME-3M melanoma = system: MALME-3M melanoma
OVCAR-3 ovarian = system: OVCAR-3 ovarian
SF-539 CNS = system: SF-539 CNS

| SMILES | TGI (DU-145 prostate) [µM] | TGI (MDA-N) [µM] | TGI (UO-31 renal) [µM] | TGI (ACHN renal) [µM] | TGI (SK-MEL-28 melanoma) [µM] | TGI (OVCAR-4 ovarian) [µM] | TGI (NCI-H23 lung) [µM] | TGI (MALME-3M melanoma) [µM] | TGI (OVCAR-3 ovarian) [µM] | TGI (SF-539 CNS) [µM] |
| --- | --- | --- | --- | --- | --- | --- | --- | --- | --- | --- |
| COc1ccc(-c2c(/C=N/OCC(=O)O)c3sc4ccccc4n3c2/C=N/OCC(=O)O)cc1 | > 50 | > 50 | > 50 | > 50 | > 50 | > 50 | > 50 | > 50 | > 50 |  |
| COC(=O)CCCc1nc2ccccc2nc1N=Nc1ccccc1 | > 100 | > 100 | > 100 | > 100 | > 100 | > 100 | > 100 | 74.7 | > 100 | > 100 |
| CN(C)Cc1cc(/C=C/C(=O)c2ccc(Br)cc2)cc(CN(C)C)c1O | 33.7 | 32.6 | 23.2 | 24.7 | 34.9 |  |  | 31.6 | 71.4 | 29.1 |
| CC(=O)OC1C2CCC3CC2C2(SCCS2)C31 (stereo not drawn) | > 100 | > 100 | > 100 | > 100 | > 100 | > 100 | > 100 | > 100 | > 100 | > 100 |
| CCOC(=O)c1c(SC(=O)c2ccc(Cl)cc2)n(-c2ccccc2)c(=S)n(-c2ccccc2)c1=O | > 100 | > 100 |  | > 100 | > 100 | > 100 | > 100 | > 100 | > 100 | > 100 |
| C#CCn1c(I)cc2c(c1=O)COC(=O)[C@]2(O)CC | > 100 | > 100 | > 100 | > 100 | > 100 | > 100 | > 100 | > 100 | > 100 | > 100 |
| Cc1cc(C)c(S(=O)(=O)N(CCCCCN)OCCCN)c(C)c1 | 31.2 | 31.4 | 27.1 | 33.6 | 32.2 | 37.8 | 33.4 | 40.2 | 36.2 | 27 |
| N#Cc1nc(CN2C(=O)c3ccccc3C2=O)oc1N | > 100 | > 100 |  | > 100 | > 100 | > 100 |  | > 100 | > 100 | > 100 |
| Cc1cccc(NC(=S)Nc2cccc(Cl)c2)n1 | > 100 | > 100 | > 100 | > 100 | > 100 | > 100 | > 100 | > 100 | > 100 | > 100 |
| COc1ccc(/C=C/C(=O)c2cc(CN(C)C)c(O)c(CN(C)C)c2)cc1 | > 100 | 67.1 | 86.9 | > 100 | > 100 |  | > 100 | 54.2 | 56 | > 100 |
| C/C(CC(O)(C(F)(F)F)C(F)(F)F)=N\O | > 10 | > 10 |  | > 10 | > 10 | > 10 | > 10 | > 10 | > 10 | > 10 |
| COC(=O)c1ccc(C)cc1C1CN=NC12Cc1cccc(C)c1C2=O (stereo not drawn) | > 100 | 70.9 | 78.3 | > 100 | 91.8 | > 100 | > 100 | 96.6 | > 100 | > 100 |
| CNCC(SC)c1ccc(O)c(O)c1 (stereo not drawn) | 37.4 | 38.1 | > 100 | 33.4 | > 100 | 32.5 | > 100 | 32.4 | 40.9 |  |
| O=C(CCC(NC(=O)OCc1ccccc1)C(=O)OCc1ccccc1)Nc1cccc(OCc2ccccc2)c1 (stereo not drawn) | 79.6 | > 100 |  | > 100 | > 100 | > 100 | 57.1 | 56.4 | 45.4 | 35 |
| CC(=O)N1CCOC12N=NC(C)(C)O2 (stereo not drawn) | > 100 | > 100 | > 100 | > 100 | > 100 | > 100 | > 100 | > 100 | > 100 | > 100 |
| CN1CCC(O)(OC(=O)C(c2ccccc2)C2(O)CCCC2)CC1 (stereo not drawn) | > 100 | > 100 |  | > 100 | > 100 | > 100 | > 100 | > 100 | > 100 | > 100 |
| CCC1OC2(C)CC(C#N)(C#N)C1(C#N)C(=N)O2 (stereo not drawn) | > 100 | > 100 | > 100 | > 100 | > 100 |  | > 100 | > 100 | > 100 | > 100 |
